US20260250318A1, “COMPOSITIONS AND METHODS FOR CROSSING THE BLOOD BRAIN BARRIER” (VOYAGER THERAPEUTICS, INC., priority 2022, published 2026)

Key:
[1] = system: brains, heart, liver, muscle, and DRG of the NHPs; assay: Maturation of TTM-001 and TTM-002 capsids, NGS enrichment in NHP tissues; format: in vivo; details: relative to AAV9 control
Outline: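 Variants carry mutations within and flanking the loop IV peptide insert: positions 450–466 were triplet-randomized, while positions 449–466 received low-frequency point mutations. The combined pool went into two NHPs, and each peptide was scored by NGS enrichment ratio against AAV9.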

[2] = system: brain; assay: Matured TTM-001 and TTM-002 variants, NGS enrichment in mouse brain; format: in vivo, mice; details: relative to AAV9 control
[3] = NGS fold-enrichment, DRG of NHPs
[4] = NGS fold-enrichment, RNA, brain of NHPs
[5] = NGS fold-enrichment, heart of NHPs
[6] = NGS fold-enrichment, liver DNA of NHPs
[7] = NGS fold-enrichment, liver RNA of NHPs
[8] = NGS fold-enrichment, muscle of NHPs
[9] = NGS fold-enrichment, brain of mice
[10] = NGS fold-enrichment of RNA, NHP brain
[11] = NGS fold-enrichment, NHP liver DNA
[12] = NGS fold-enrichment, NHP liver RNA
[13] = NGS fold-enrichment, NHP muscle
[14] = NGS fold-enrichment, mouse brain
[15] = NGS fold-enrichment of matured AAV capsid variants, NHP brain, RNA

KTDLKSGSPHSKAQNQQT
Fold Enrichment relative to AAV9, DRG (NHP) [1, 3]: 0.000 fold | Fold Enrichment relative to AAV9, Brain (NHP) [1, 4]: 63.152 fold | Fold Enrichment relative to AAV9, Heart (NHP) [1, 5]: 0.000 fold | Fold Enrichment relative to AAV9, Liver DNA (NHP) [1, 6]: 0.377 fold | Fold Enrichment relative to AAV9, Liver RNA (NHP) [1, 7]: 0.285 fold | Fold Enrichment relative to AAV9, Muscle (NHP) [1, 8]: 0.012 fold | Fold Enrichment relative to AAV9, Brain (Mouse) [2, 9]: 62.687 fold

KTDNGHDSPHKSRQNQQT
Fold Enrichment relative to AAV9, Brain (NHP) [1, 10]: 105.312 fold | Fold Enrichment relative to AAV9, DRG (NHP) ([1]; NGS fold-enrichment, NHP DRG): 0.000 fold | Fold Enrichment relative to AAV9, Heart (NHP) ([1]; NGS fold-enrichment, NHP heart): 0.033 fold | Fold Enrichment relative to AAV9, Liver DNA (NHP) [1, 11]: 0.018 fold | Fold Enrichment relative to AAV9, Liver RNA (NHP) [1, 12]: 0.000 fold | Fold Enrichment relative to AAV9, Muscle (NHP) [1, 13]: 0.000 fold | Fold Enrichment relative to AAV9, Brain (Mouse) [2, 14]: 7.931 fold

KTDNGSGSPHSKAHNQQT
Fold Enrichment relative to AAV9, Brain (NHP) [1, 10]: 95.164 fold | Fold Enrichment relative to AAV9, DRG (NHP) [1, 3]: 0.000 fold | Fold Enrichment relative to AAV9, DRG (NHP) ([1]; NGS fold-enrichment, NHP DRG): 0.000 fold | Fold Enrichment relative to AAV9, Heart (NHP) ([1]; NGS fold-enrichment, NHP heart): 0.000 fold | Fold Enrichment relative to AAV9, Liver DNA (NHP) [1, 11]: 0.027 fold | Fold Enrichment relative to AAV9, Liver RNA (NHP) [1, 12]: 0.000 fold | Fold Enrichment relative to AAV9, Muscle (NHP) [1, 13]: 0.000 fold | Fold Enrichment relative to AAV9, Brain (NHP) [1, 4]: 95.164 fold | Fold Enrichment relative to AAV9, Heart (NHP) [1, 5]: 0.000 fold | Fold Enrichment relative to AAV9, Liver DNA (NHP) [1, 6]: 0.027 fold | Fold Enrichment relative to AAV9, Liver RNA (NHP) [1, 7]: 0.000 fold | Fold Enrichment relative to AAV9, Muscle (NHP) [1, 8]: 0.000 fold | Fold Enrichment relative to AAV9, Brain (Mouse) [2, 9]: 55.313 fold | Fold Enrichment relative to AAV9, Brain (Mouse) [2, 14]: 55.313 fold

KTDRGSGSPHSKAQNQQT
Fold Enrichment relative to AAV9, DRG (NHP) [1, 3]: 0.000 fold | Fold Enrichment relative to AAV9, Brain (NHP) [1, 4]: 61.419 fold | Fold Enrichment relative to AAV9, Heart (NHP) [1, 5]: 0.004 fold | Fold Enrichment relative to AAV9, Liver DNA (NHP) [1, 6]: 0.316 fold | Fold Enrichment relative to AAV9, Liver RNA (NHP) [1, 7]: 0.211 fold | Fold Enrichment relative to AAV9, Muscle (NHP) [1, 8]: 0.000 fold | Fold Enrichment relative to AAV9, Brain (Mouse) [2, 9]: 74.256 fold

KTDRMSGSPHSKAQNQQT
Fold Enrichment relative to AAV9, DRG (NHP) [1, 3]: 0.000 fold | Fold Enrichment relative to AAV9, Brain (NHP) [1, 4]: 65.143 fold | Fold Enrichment relative to AAV9, Heart (NHP) [1, 5]: 0.000 fold | Fold Enrichment relative to AAV9, Liver DNA (NHP) [1, 6]: 0.103 fold | Fold Enrichment relative to AAV9, Liver RNA (NHP) [1, 7]: 0.332 fold | Fold Enrichment relative to AAV9, Muscle (NHP) [1, 8]: 0.000 fold | Fold Enrichment relative to AAV9, Brain (Mouse) [2, 9]: 104.890 fold

KTDRNSGSPHSKAQNQQT
Fold Enrichment relative to AAV9, Brain (NHP) [1, 15]: 54.495 fold | Fold Enrichment relative to AAV9, DRG (NHP) ([1]; NHP DRG): 0.000 fold | Fold Enrichment relative to AAV9, Heart (NHP) ([1]; NHP heart): 0.000 fold | Fold Enrichment relative to AAV9, Liver DNA (NHP) ([1]; NHP liver, DNA): 0.241 fold | Fold Enrichment relative to AAV9, Liver RNA (NHP) ([1]; NHP liver, RNA): 0.823 fold | Fold Enrichment relative to AAV9, Muscle (NHP) ([1]; NHP muscle): 0.000 fold | Fold Enrichment relative to AAV9, Brain (Mouse) ([2]; mouse brain): 85.823 fold

KTDRSSGSPHSKAQNQQT
Fold Enrichment relative to AAV9, Brain (NHP) [1, 15]: 52.737 fold | Fold Enrichment relative to AAV9, DRG (NHP) ([1]; NHP DRG): 0.000 fold | Fold Enrichment relative to AAV9, Heart (NHP) ([1]; NHP heart): 0.000 fold | Fold Enrichment relative to AAV9, Liver DNA (NHP) ([1]; NHP liver, DNA): 0.085 fold | Fold Enrichment relative to AAV9, Liver RNA (NHP) ([1]; NHP liver, RNA): 0.995 fold | Fold Enrichment relative to AAV9, Muscle (NHP) ([1]; NHP muscle): 0.000 fold | Fold Enrichment relative to AAV9, Brain (Mouse) ([2]; mouse brain): 123.421 fold

KTDRTSGSPHSKAQNQQT
Fold Enrichment relative to AAV9, Brain (NHP) [1, 15]: 56.466 fold | Fold Enrichment relative to AAV9, DRG (NHP) ([1]; NHP DRG): 0.000 fold | Fold Enrichment relative to AAV9, Heart (NHP) ([1]; NHP heart): 0.000 fold | Fold Enrichment relative to AAV9, Liver DNA (NHP) ([1]; NHP liver, DNA): 0.160 fold | Fold Enrichment relative to AAV9, Liver RNA (NHP) ([1]; NHP liver, RNA): 0.062 fold | Fold Enrichment relative to AAV9, Muscle (NHP) ([1]; NHP muscle): 0.000 fold | Fold Enrichment relative to AAV9, Brain (Mouse) ([2]; mouse brain): 148.498 fold

KTDVGSGSPHSKAQNQQT
Fold Enrichment relative to AAV9, Brain (NHP) [1, 15]: 51.849 fold | Fold Enrichment relative to AAV9, DRG (NHP) ([1]; NHP DRG): 0.000 fold | Fold Enrichment relative to AAV9, Heart (NHP) ([1]; NHP heart): 0.007 fold | Fold Enrichment relative to AAV9, Liver DNA (NHP) ([1]; NHP liver, DNA): 0.560 fold | Fold Enrichment relative to AAV9, Liver RNA (NHP) ([1]; NHP liver, RNA): 0.385 fold | Fold Enrichment relative to AAV9, Muscle (NHP) ([1]; NHP muscle): 0.000 fold | Fold Enrichment relative to AAV9, Brain (Mouse) ([2]; mouse brain): 115.774 fold

KTDVKSGSPHSKAQNQQT
Fold Enrichment relative to AAV9, Brain (NHP) [1, 15]: 51.296 fold | Fold Enrichment relative to AAV9, DRG (NHP) ([1]; NHP DRG): 0.000 fold | Fold Enrichment relative to AAV9, Heart (NHP) ([1]; NHP heart): 0.000 fold | Fold Enrichment relative to AAV9, Liver DNA (NHP) ([1]; NHP liver, DNA): 0.224 fold | Fold Enrichment relative to AAV9, Liver RNA (NHP) ([1]; NHP liver, RNA): 0.515 fold | Fold Enrichment relative to AAV9, Muscle (NHP) ([1]; NHP muscle): 0.000 fold | Fold Enrichment relative to AAV9, Brain (Mouse) ([2]; mouse brain): 53.601 fold
